From patent EP4206196A1, “PYRIMIDINE SUBSTITUTED DERIVATIVES AS TYK2 INHIBITORS” (Almirall S.A., priority 2021, dated 2023)

Tests used:
[1] = target: T1, TYK2 (JH2domain-pseudokinase) (Homo sapiens, UniProt P29597); assay: TYK2 JH2 domain binding assay (KINOMEscan)
T1 construct: TYK2 (JH2domain-pseudokinase)-tagged T7 phage strains were prepared in an E. coli host derived from the BL21 strain; made in house; host or cells: E. coli BL21-derived host (T7 phage) or HEK-293 cells
Description: TYK2 (JH2domain-pseudokinase) KINOMEscan assay. For the assay, TYK2 (JH2domain-pseudokinase)-tagged T7 phage strains were prepared in an E. coli host derived from the BL21 strain.E. coli were grown to log-phase and infected with T7 phage and incubated with shaking at 32°C until lysis. The lysates were centrifuged and filtered to remove cell debris. The remaining TYK2 (JH2domain-pseudokinase) were produced in HEK-293 cells and subsequently tagged with DNA for qPCR detection. Streptavidin-coated magnetic beads were treated with biotinylated small molecule ligands for 30 minutes at room temperature to generate affinity resins for kinase assays. The liganded beads were blocked with excess biotin and washed with blocking buffer (SeaBlock (Pierce), 1% BSA, 0.05% Tween 20, 1 mM DTT) to remove unbound ligand and to reduce non-specific binding. Binding reactions were assembled by combining TYK2 (JH2domain-pseudokinase), liganded affinity beads, and test compounds in 1x binding buffer (20% SeaBlock, 0.17x PBS, 0.05% Tween 20, 6 mM DTT). Test compounds were prepared as 111X stocks in 100% DMSO. Kds were determined using an 11-point 3-fold compound dilution series with three DMSO control points. All compounds for Kd measurements are distributed by acoustic transfer (non-contact dispensing) in 100% DMSO. The compounds were then diluted directly into the assays such that the final concentration of DMSO was 0.9%. All reactions performed in polypropylene 384-well plate. Each was a final volume of 0.02 ml. The assay plates were incubated at room temperature with shaking for 1 hour and the affinity beads were washed with wash buffer (1x PBS, 0.05% Tween 20). The beads were then re-suspended in elution buffer (1x PBS, 0.05% Tween 20, 0.5 µM non-biotinylated affinity ligand) and incubated at room temperature with shaking for 30 minutes. The kinase concentration in the eluates was measured by qPCR. […]
An 11-point 3-fold serial dilution of each test compound was prepared in 100% DMSO at 100x final test concentration and subsequently diluted to 1x in the assay (final DMSO concentration = 1%). Most Kds were determined using a compound top concentration = 30,000 nM. If the initial Kd determined was < 0.5 nM (the lowest concentration tested), the measurement was repeated with a serial dilution starting at a lower top concentration.
Curves were fitted using a non-linear least square fit with the Levenberg-Marquardt algorithm. […] TABLE 1: Kd Affinities for Tyk2 JH2 Domain Binding Assay.

[2] = system: STAT1/3 through TYK2/JAK1; assay: IFNa induced STAT phosphorylation in HEK293 cells (SIE-bla reporter gene); assay type: cell-based; conditions: Homo sapiens, HEK293; HEK293T-sie-bla cells, IFNa at EC80, 4 hours; read-out: Inhibition of IFNa induced STAT phosphorylation HEK293 cells IC50
Description: Stimulation of HEK293T-sie-bla cells with interferon alpha (INFa) activates the signaling pathway of STAT1/3 through TYK2/JAK1. In this assay, measurement of the activity of the reporter gene […]-lactamase expression was used as the readout.
CellSensorTM SIE-bla HEK293T cell line were purchased from Thermo Fisher Scientific (ref. #K1649B) and cultured as specified by the provider. A number of 30.000 cells per well (40 µl) were plated in a 384-well plate (Corning ref.# 3712) and cultured overnight at 37°C with 5% CO2 in a complete Optimem media (ThermoFisher ref. #11058-021) containing 0.5% (v/v) heat inactivated dialyzed FBS (Life Technologies ref. #26400044), 10 µM non-essential aminoacids NEAA (Sigma ref. #M7145), 100 µM Sodium Pyruvate (Gibco ref. #11360-039) and 100 U/mL Penicillin (Sigma ref. #P0781). Compounds were initially dissolved in 100% DMSO. Compound curves were then prepared using a 1/5 serial dilution (10 dilutions). The dilutions were directly diluted in complete Optimem media at 40-fold their final concentration in 20% DMSO. IFNa initial solution (R&D systems ref. #11100-1) was prepared at 10-fold its EC80 in complete Optimem media. Compounds and IFNa were added simultaneously to the wells with cells and incubated during 4 hours at 37°C (the final DMSO was 0.1%). The […]-lactamase substrate (LifeTechnologies ref.#K1138) was prepared at 6-fold its final concentration as specified by the provider. Then 10 µL of the mixture was added to the wells to stop the stimulation. Plate was left in the dark over-night. Then a FRET reading was performed on an appropriate plate reader.
All experiments were analysed using an ExcelFit template and the four-parameter log equation. […] TABLE 2: IC50 Inhibitions of IFNa induced STAT phosphorylation in HEK293 cells

T1 sequence (P29597 589-875 limits assumed): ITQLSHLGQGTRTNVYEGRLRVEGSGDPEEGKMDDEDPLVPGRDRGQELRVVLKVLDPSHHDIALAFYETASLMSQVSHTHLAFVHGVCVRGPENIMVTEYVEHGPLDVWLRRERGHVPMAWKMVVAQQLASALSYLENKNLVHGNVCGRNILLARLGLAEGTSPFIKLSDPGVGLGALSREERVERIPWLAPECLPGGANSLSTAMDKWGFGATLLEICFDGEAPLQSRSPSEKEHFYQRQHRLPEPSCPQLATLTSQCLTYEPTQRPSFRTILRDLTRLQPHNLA

Structure (SMILES)	Kd [1] [nM]	IC50 [2] [nM]
COc1c(Nc2cc(Nc3cc(C)nc(C)n3)ncn2)cccc1-c1ncn(C2COC2)n1 [Example 43, N4-(2,6-dimethylpyrimidin-4-yl)-N6-[2-methoxy-3-[1-(oxetan-3-yl)-1,2,4-triazol-3-yl]phenyl]pyrimidine-4,6-diamine]	0.2 to 1	100 to 1000
COc1c(C)cccc1Nc1cc(NC(=O)C2CC2)ncn1 [Example 3, N-[6-(2-methoxy-3-methyl-anilino)pyrimidin-4-yl]cyclopropanecarboxamide]	1 to 10	> 1000
Cc1cc(Nc2cc(Nc3ncccc3N(C)S(C)(=O)=O)ncn2)nc(C)n1 [Example 120, N-[2-[[6-[(2,6-dimethylpyrimidin-4-yl)amino]pyrimidin-4-yl]amino]-3-pyridyl]-N-methyl-methanesulfonamide]	< 0.2	10 to 100
[2H]C([2H])([2H])N(c1cc(-c2nnc(C)n2C)cnc1Nc1cc(Nc2cc(C)nc(C)n2)ncn1)S(C)(=O)=O [Example 136, N-[2-[[6-[(2,6-dimethylpyrimidin-4-yl)amino]pyrimidin-4-yl]amino]-5-(4,5-dimethyl-1,2,4-triazol-3-yl)-3-pyridyl]-N-(trideuteriomethyl)methanesulfonamide]	< 0.2	< 10
Cc1cc(Nc2cc(Nc3ccccc3C(C)S(C)(=O)=O)ncn2)nc(C)n1 (stereo not shown) [Example 72, N4-(2,6-dimethylpyrimidin-4-yl)-N6-[2-(1-methylsulfonylethyl)phenyl]pyrimidine-4,6-diamine]	1 to 10	100 to 1000
Cc1cc(Nc2cc(Nc3ccccc3OC(F)(F)F)ncn2)nc(C)n1 [Example 10, N6-(2,6-dimethylpyrimidin-4-yl)-N4-[2-(trifluoromethoxy)phenyl] pyrimidine-4,6-diamine]	> 10	> 1000
Cc1cc(Nc2cc(Nc3ccc(C4=CCOCC4)cc3N(C)S(C)(=O)=O)ncn2)nc(C)n1 [Example 95, N-[5-(3,6-dihydro-2H-pyran-4-yl)-2-[[6-[(2,6-dimethylpyrimidin-4-yl)amino]pyrimidin-4-yl]amino]phenyl]-N-methyl-methanesulfonamide]	< 0.2	< 10
COc1cccc(Nc2cc(Nc3cc(C)nc(C)n3)ncn2)c1 [Example 5, N6-(2,6-dimethylpyrimidin-4-yl)-N4-(3-methoxyphenyl)pyrimidine-4,6-diamine]	1 to 10	> 1000
COc1c(Nc2cc(Nc3cc(C)nc(C)n3)ncn2)cccc1-c1ncn(CC2CCOC2)n1 (stereo not shown) [Example 60, N6-(2,6-dimethylpyrimidin-4-yl)-N4-[2-methoxy-3-[1-(tetrahydrofuran-3-ylmethyl)-1,2,4-triazol-3-yl]phenyl]pyrimidine-4,6-diamine]	–	10 to 100
Cc1cc(Nc2cc(Nc3cnccc3N(C)S(C)(=O)=O)ncn2)nc(C)n1 [Example 35, N-[3-[[6-[(2,6-dimethylpyrimidin-4-yl)amino]pyrimidin-4-yl]amino]pyridin-4-yl]-N-methylmethanesulfonamide]	> 10	–
COc1cc(-c2nc(C(F)(F)F)n(C)n2)ccc1Nc1cc(Nc2cc(C)nc(C)n2)ncn1 [Example 82, N6-(2,6-dimethylpyrimidin-4-yl)-N4-[2-methoxy-4-[1-methyl-5-(trifluoromethyl)-1,2,4-triazol-3-yl]phenyl]pyrimidine-4,6-diamine]	1 to 10	–
Cc1cc(Nc2cc(Nc3ncc(C4CCCCO4)cc3S(C)(=O)=O)ncn2)nc(C)n1 (stereo not shown) [Example 175, 6-N-(2,6-dimethylpyrimidin-4-yl)-4-N-[3-methylsulfonyl-5-(oxan-2-yl)pyridin-2-yl]pyrimidine-4,6-diamine]	–	< 10
COc1c(Nc2cc(Nc3cc(C)nc(C)n3)ncn2)cccc1-c1ncn(CC2CCCO2)n1 (stereo not shown) [Example 59, N4-(2,6-dimethylpyrimidin-4-yl)-N6-[2-methoxy-3-[1-(tetrahydrofuran-2-ylmethyl)-1,2,4-triazol-3-yl]phenyl]pyrimidine-4,6-diamine]	–	10 to 100
COc1ccc(Nc2cc(Nc3cc(C)nc(C)n3)ncn2)c(OC)c1 [Example 17, N4-(2,4-dimethoxyphenyl)-N6-(2,6-dimethylpyrimidin-4-yl)pyrimidine-4,6-diamine]	–	> 1000
CN=S(C)(=O)c1cc(C2CC2)ccc1Nc1cc(Nc2cc(C)nc(C)n2)ncn1 (stereo not shown) [Example 118, N4-[4-cyclopropyl-2-(N,S-dimethylsulfonimidoyl)phenyl]-N6-(2,6-dimethylpyrimidin-4-yl)pyrimidine-4,6-diamine]	–	< 10
COc1c(Nc2cc(Nc3cc(C)nc(C)n3)ncn2)cccc1-c1ncn(C2CC(O)C2)n1 (stereo not shown) [Example 58, 3-[3-[3-[[6-[(2,6-dimethylpyrimidin-4-yl)amino]pyrimidin-4-yl]amino]-2-methoxy-phenyl]-1,2,4-triazol-1-yl]cyclobutanol]	–	100 to 1000
COc1c(Nc2cc(Nc3cc(C)nc(C)n3)ncn2)cccc1C1CCCCO1 (stereo not shown) [Example 56, N6-(2,6-dimethylpyrimidin-4-yl)-N4-(2-methoxy-3-tetrahydropyran-2-yl-phenyl)pyrimidine-4,6-diamine]	–	> 1000
Cc1cc(Nc2cc(Nc3ncc(-c4cnn(C)c4C)cc3[S+](C)[O-])ncn2)nc(C)n1 (stereo not shown) [Example 173, N4-[5-(1,5-dimethylpyrazol-4-yl)-3-methylsulfinyl-2-pyridyl]-N6-(2,6-dimethylpyrimidin-4-yl)pyrimidine-4,6-diamine]	–	< 10
Cc1cc(Nc2cc(Nc3ccccc3-c3ncn(C)n3)ncn2)nc(C)n1 [Example 79, N6-(2,6-dimethylpyrimidin-4-yl)-N4-[2-(1-methyl-1,2,4-triazol-3-yl)phenyl]pyrimidine-4,6-diamine]	–	> 1000
[2H]C([2H])([2H])N(c1cc(-c2cnn(C)c2C)ccc1Nc1cc(Nc2cc(C)nc(C)n2)ncn1)S(C)(=O)=O [Example 98, N-[5-(1,5-dimethylpyrazol-4-yl)-2-[[6-[(2,6-dimethylpyrimidin-4-yl)amino]pyrimidin-4-yl]amino]phenyl]-N-(trideuteriomethyl)methanesulfonamide]	–	> 1000
COc1c(Nc2cc(Nc3cc(C)nc(C)n3)ncn2)cccc1-c1ncn(C(F)F)n1 [Example 54, N4-[3-[1-(difluoromethyl)-1,2,4-triazol-3-yl]-2-methoxy-phenyl]-N6-(2,6-dimethylpyrimidin-4-yl)pyrimidine-4,6-diamine]	–	100 to 1000
COc1c(-c2ncn(C)n2)ccnc1Nc1cc(Nc2ccc(F)c(C)n2)ncn1 [Example 174, N4-(5-fluoro-6-methyl-2-pyridyl)-N6-[3-methoxy-4-(1-methyl-1,2,4-triazol-3-yl)-2-pyridyl]pyrimidine-4,6-diamine]	–	10 to 100
COc1c(Nc2cc(Nc3cc(C)nc(C)n3)ncn2)cccc1-c1ncn(CC2CCCOC2)n1 (stereo not shown) [Example 57, N4-(2,6-dimethylpyrimidin-4-yl)-N6-[2-methoxy-3-[1-(tetrahydropyran-3-ylmethyl)-1,2,4-triazol-3-yl]phenyl]pyrimidine-4,6-diamine]	–	10 to 100
